Data set [1] deals with cell surface Apo2L/TRAIL on NK cells. Description: Flow cytometry of cell surface Apo2L/TRAIL on purified NK cells. To be noted: 5C2-Alexa 488 staining. It counts as cell-based, human. As for the experimental part:
Cell surface Apo2L/TRAIL on purified NK cells treated with poly(I:C), R-848 or hIL-2 (30 ng/ml, BD Biosciences) was also analyzed by cytometry. Isotype control (IgG2a, Sigma) and anti-Apo2L/TRAIL antibody (5C2) were labeled with Alexa 488 (Molecular Probes). 5×10^5 cells were incubated with 2 μg of human IgG to block FcRs and 1 μg of the directly labeled mAbs at 4° C. for 45 minutes, followed by 2 washes. Stained cells were analyzed using a FACScan cytometer (Becton Dickenson) and Cellquest software.

Data set [2] concerns Apo2L/TRAIL mRNA in NK cells. Description: RT-QPCR of Apo2L/TRAIL message in treated NK cells. It counts as cell-based, human. The note with it: NK cells treated 18 hours; normalized to RPL19. As for the experimental part: In another experiment, the purified NK cells were treated for 18 hours in RPMI 1640 supplemented with heat inactivated 10% FCS, penicillin, streptomycin, 10 mM sodium pyruvate, 2 mM L-glutamine and 10 mM HEPES with poly(I:C) (50 μg/ml), R-848 (5 μg/ml) or hIFN-alpha (1000 U/ml, Sigma) in the presence or absence of 10 μg/ml cycloheximide and Apo2L/TRAIL was measured in the extracted RNA. RT-PCR was performed and the amount of cDNA was quantitated by RT-QPCR analysis, normalized to RPL19, and fold induction over control is shown in FIG. 2A. Primers were designed as per instructions (Primer Express) and sequences are: hRPL19-probe: […] (SEQ ID NO:7); hRPL19-For: […] (SEQ ID NO:8); hRPL19-Rev: […] (SEQ ID NO:9); hApo2L-probe: […] (SEQ ID NO:10); hApo2L-For: […] (SEQ ID NO:11); hApo2L-Rev: […] (SEQ ID NO:12). cDNA was analyzed for expression of RPL19 and Apo2L/TRAIL by RT-QPCR (Applied Biosystems) as described in Zarember et al., J. Immunol., 168(2):554-61 (2002). Fold increase values are expressed as arbitrary units, relative to the calibrator gene RPL19.

A further data set has as its system 4T1 cells. Description: 51Cr release cytotoxicity assay, purified human NK cells on 4T1 target cells. To be noted: NK cells treated for 18 hours with agent; 4 hour incubation; E:T 1:1 to 50:1. It is filed as cell-based, mouse. As for the experimental part:
4T1 cells (a metastatic mammary carcinoma cell line derived from BALE/C mice, obtained from Fred Miller, Karmanos Cancer Institute) were assayed in an in vitro cytotoxicity assay to examine tumoricical effects of various Toll receptor (“TLR”) activators and NK cells. The 4T1 target cells were cultured in IDMEM medium supplemented with 10% FCS, glutamine and penicillin/streptomycin, labeled with 100 mCi ^51Cr for 1 hour at 37° C. and then washed three times with culture medium.
To prepare purified effector NK cells for the assay, PBMCs from healthy human donors were isolated by standard density-gradient centrifugation over Ficoll-Paque Plus (Pharmacia). CD3 positive cells were first depleted using anti-CD3 microbeads (obtained from Miltenyi), and then the NK cells were purified using anti-CD56 microbeads (Miltenyi). The purity of the NK cell preparation was 95% or higher as determined by staining with mouse anti-human CD56 PE and mouse anti-human CD14 PE conjugates (BD Biosciences). The isolated cells were cultured in RPMI 1640 supplemented with heat inactivated 10% FCS, penicillin, streptomycin, 10 mM sodium pyruvate, 2 mM L-glutamine and 10 mM HEPES.
10^4 of the labeled 4T1 cells were added to varying numbers of purified NK cells (either untreated control NK cells or NK cells treated with specific agent) at ratios of 1:1, 3:1, 6:1, 12:1, 25:1, and 50:1, respectively. NK cells were treated for 18 hours with one of the following TLR activating agents: sBLP (1 μg/ml, Bachem); poly(I:C) (50 μg/ml, Pharmacia); E. coli 055:B5 LPS (phenol extracted, 1 μg/ml, Sigma); Flagellin (1 μg/ml, A. Gewirtz, Emory Univerity); R-848 (5 μg/ml, Invivogen); CpG oligonucleotides (2006 and 2216, 5 μM, Invivogen). The cytotoxicity assays were performed in round bottom 96 well plates, and the samples were incubated in duplicate wells for 4 hours at 37° C., 5% CO2. RPMI 1640 supplemented with heat inactivated 10% FCS, penicillin, streptomycin, 10 mM sodium pyruvate, 2 mM L-glutamine and 10 mM HEPES was used during incubation.
After the 4 hour incubation, supernatants were aspirated from the wells and examined for ^51Cr release using a Gamma counter. The percent specific lysis was calculated as 100× (experimental cpm-spontaneous cpm)/(total cpm-spontaneous cpm). The data are representative of at least three experiments and <5% SD was observed.
A cytotoxicity assay was performed as described in Example 1, except for the following modifications. Purified NK cells were treated with poly(I:C) or R-848 overnight and incubated with 4T1 cells. The role of TNF-alpha, FasL, and Apo2L/TRAIL was evaluated by preincubation of the NK cells with neutralizing antibodies to the respective ligands. The following neutralizing antibodies were added at final concentration of 2 μg/ml: anti-Fas-L (mIgG2b, R&D Systems), anti-TNF-alpha (mIgG1, Genentech), and anti-Apo2L/TRAIL (5C2, mIgG2a, ATCC HB-12258 and 1D1, mIgG2b; ATCC HB-12257). Isotype control antibodies were obtained from BD Biosciences.
(§1) For the cytotoxicity assays, target cells were labeled with 100 mCi ^51Cr for 1 hour at 37° C. and then washed 3 times before use. 10^4 target cells were added to varying numbers of effector cells at the indicated ratios and incubated in duplicate wells for 4 hours at 37° C., 5% CO2, and supernatants were used to determine ^51Cr released using a Gamma counter. The cytotoxicity assays were performed in round bottom 96 well plates and the percent specific lysis was calculated as 100× (experimental cpm-spontaneous cpm)/(total cpm-spontaneous cpm). The role of Apo2L/TRAIL expressed by NK cells in the lysis of target cells was evaluated using anti-Apo2L/TRAIL mAbs (5C2 and 1D1, Genentech, Inc.). Isotype control antibodies were obtained from BD Biosciences.

In another data set the test system is HCT116 cells. In words: 51Cr release cytotoxicity assay on HCT116 target cells. It counts as cell-based. The note with it: NK cells stimulated with agent. As to the method:
Purified NK cells were treated with poly(I:C) or R-848 and incubated with B16BL10 melanoma cells (ATCC) at the indicated ratios. Purified NK cells stimulated with R-848 were incubated with HCT116 target cells (ATCC) at the indicated ratios. The role of Apo2L/TRAIL in lysis assays in panels B and C was determined by preincubation with neutralizing (5C2) and non-neutralizing (1D1) anti-Apo2L/TRAIL mAbs. The data has been confirmed with NK cells from at least 3 donors and less that 5% SD was observed.
as §1

For the substance poly(I:C), the “Cell surface expression of Apo2L/TRAIL on NK cells” value in data set [1] was “detectable cell surface expression”. Also, in data set [2], the “Increase of Apo2L/TRAIL mRNA over control” value is reported as 26 fold. The “Lysis of 4T1 cells by NK cells treated with TLR activating agent” value in the data set on 4T1 cells was “efficiently lysed”. In addition, in the data set with HCT116 cells, the “Cytotoxicity of stimulated NK cells towards HCT116 cells” value is “increased cytoxicity”.

Source of the values: patent publication US20080199423A1, “Methods of Using Apo2l Receptor Agonists and Ink Cell Activators” (GENENTECH, INC., priority 2004, published 2008).
